For 36 molecules, IC50 and IC90 results are on record in ChEMBL document CHEMBL4483862, “Open-source discovery of chemical leads for next-generation chemoprotective antimalarials” (2018).

Each structure is given as a SMILES string. pIC50: −log10 of the molar value.

The assay deals with Plasmodium berghei. Briefly: Luciferase/luciferin-expressing antifolate-resistant parasites were used to infect a culture of HepG2 cells that were pre-incubated with compounds. Infected hepatocytes emit light due to the luciferase reaction. Assay results are presented as the percent inhibition of light emission compared to control. […]. Type of assay: functional. As to conditions: sporozoite; for IC90: read-out: LUCIFERASE INFECTION ASSAY - IC90.

The mark [1] stands for this setting: read-out: LUCIFERASE INFECTION ASSAY - IC50.

Consider `N#CC1C(=N)Oc2c3c(c4ccccc4c2C1c1ccc(Cl)cc1)C(c1ccc(Cl)cc1)C(C#N)C(=N)O3` (configuration not stated), for which the IC90 was more than 6.14 µM. For the same molecule, the negative logarithm of the IC50 (pIC50) (FFLUC_HILL_SLOPE 2.7, FFLUC_R_SQUARED 0.81, HEPG2TOX_HILL_SLOPE 15, HEPG2TOX_R_SQUARED 0.458, PBLUC_HILL_SLOPE 19.3, PBLUC_R_SQUARED 0.191, read-out: LUCIFERASE INFECTION ASSAY - IC50) is 5.24.
Turning to `COc1ccc(COC(=O)c2sc3nc4n(c(=O)c3c2C)CCC4)cc1F`, the IC90 is more than 10 µM. Further, the pIC50 (PBLUC_HILL_SLOPE 15.9, PBLUC_R_SQUARED 0.0512, read-out: LUCIFERASE INFECTION ASSAY - IC50) is 5.03.
Turning to `Cc1c(Cl)c(CN2C(=O)C(=O)N(Cc3cccs3)C2=O)nc2ccccc12`, the IC90 is more than 10 µM. Also, the pIC50 under setting [1] was less than 5.00.
For `COc1ccc(C(C)C)cc1-c1cnc(N)c(-c2ccc(F)c(Cl)c2)c1`, the IC90 was more than 8.9 µM. Besides, the pIC50 (HEPG2TOX_HILL_SLOPE 11.3, HEPG2TOX_R_SQUARED 0.599, PBLUC_HILL_SLOPE 2.08, PBLUC_R_SQUARED 0.63, read-out: LUCIFERASE INFECTION ASSAY - IC50) was 5.40.
As to `Clc1ccc(-c2cnc3cnc(-c4cnn(Cc5ccccc5)c4)cn23)cc1`, the IC90 stood at 3.3 µM. For the same molecule, the pIC50 (FFLUC_HILL_SLOPE 15.7, FFLUC_R_SQUARED 0.271, HEPG2TOX_HILL_SLOPE 2.48, HEPG2TOX_R_SQUARED 0.0283, PBLUC_HILL_SLOPE 11.5, PBLUC_R_SQUARED 0.641, read-out: LUCIFERASE INFECTION ASSAY - IC50) was 5.56.
As to `Cc1ccc(C(=O)Nc2nc3cc4c(cc3s2)OCCO4)s1`, the IC90 is more than 10 µM. For the same molecule, the pIC50 (PBLUC_HILL_SLOPE 9.57, PBLUC_R_SQUARED 0.436, read-out: LUCIFERASE INFECTION ASSAY - IC50) is 5.07.
Turning to `O=c1nc2n(c3ccccc13)CC/C2=C\c1ccc(Cl)cc1`, the IC90 was more than 10.7 µM. Further, the pIC50 under setting [1] is less than 4.97.
`O=C(Nc1ccc(Oc2ccc(F)cc2)nc1)c1cccc(-n2cnnn2)c1`: the IC90 is more than 10 µM. For the same molecule, for the setting “PBLUC_HILL_SLOPE 8.75, PBLUC_R_SQUARED 0.449, read-out: LUCIFERASE INFECTION ASSAY - IC50”, the negative-log IC50 (pIC50) is 5.06.
Turning to `CCCCNS(=O)(=O)c1ccc2nc(SCC3CCCO3)[nH]c2c1` (configuration not stated), the IC90 is more than 10 µM. The pIC50 (HEPG2TOX_HILL_SLOPE 0.14, HEPG2TOX_R_SQUARED 0.119, PBLUC_HILL_SLOPE 2.38, PBLUC_R_SQUARED 0.33, read-out: LUCIFERASE INFECTION ASSAY - IC50) was 5.01.
For `CC(=O)n1ncc(Sc2ccc(Cl)cc2)c1-c1ccc(Cl)cc1`, the IC90 was more than 9.08 µM. Further, the negative-log IC50 (pIC50) (FFLUC_HILL_SLOPE 25.1, FFLUC_R_SQUARED 0.0752, read-out: LUCIFERASE INFECTION ASSAY - IC50) was less than 5.04.
Regarding `COc1ccc(Sc2ccc(NC(=O)C(C)n3ccnc3)cc2Cl)cc1` (configuration not stated), the IC90 was more than 10 µM. For the same molecule, the pIC50 under setting [1] is less than 5.00.
The like results for `COc1ccc(-c2nc(NC(=O)c3ccc(-n4cccn4)nc3)sc2C)cc1` were, in that order, more than 10 µM and less than 5.00.
`O=C(Nc1ccc(Cl)c(Cl)c1)OCCNC(=O)c1cccc(S(=O)(=O)N2CCCC2)c1`: the IC90 stood at 9.3 µM. Further, the negative logarithm of the IC50 (pIC50) (HEPG2TOX_HILL_SLOPE 9.3, HEPG2TOX_R_SQUARED 0.805, PBLUC_HILL_SLOPE 3.66, PBLUC_R_SQUARED 0.453, read-out: LUCIFERASE INFECTION ASSAY - IC50) was 5.29.
Take `Cc1ccc(C2=NNC(=NC3CC3)SC2)cc1`: the IC90 is more than 10 µM. The pIC50 under setting [1] is 5.84.
On to `COc1ccc(NC=C2C(=O)CC(c3cccs3)CC2=O)cc1` (configuration not stated), for which the IC90 was more than 10.1 µM. Further, the negative-log IC50 (pIC50) under setting [1] was less than 5.00.
In the case of `CCc1c(C(=O)Nc2ccn(CCc3ccccn3)n2)cnn1C(C)(C)C`, the IC90 was 2.23 µM. Besides, the pIC50 (PBLUC_HILL_SLOPE 0.847, PBLUC_R_SQUARED 0.391, read-out: LUCIFERASE INFECTION ASSAY - IC50) is 6.78.
As for `CCOc1ncccc1C(=O)N(C)Cc1cn(-c2ccccc2)nc1-c1ccccc1`, the IC90 amounted to 5.34 µM. Besides, under setting [1], the pIC50 is 5.36.
In the case of `CCn1c(C(=O)OC)c(NC(=O)C2CCOC2)c2cc(NCC(C)c3ccccc3)cnc21` (configuration not stated), the IC90 was more than 7.32 µM. In addition, the pIC50 (PBLUC_HILL_SLOPE 1.36, PBLUC_R_SQUARED 0.443, read-out: LUCIFERASE INFECTION ASSAY - IC50) was 5.26.
With `O=C1/C(=C/c2ccc(-n3nncc3C34CC5CC(CC(C5)C3)C4)cc2)CCC/C1=C\c1ccc(-n2nncc2C23CC4CC(CC(C4)C2)C3)cc1`, the IC90 turned out to be 4.22 µM. For the same molecule, under “FFLUC_HILL_SLOPE 2.2, FFLUC_R_SQUARED 0.872, HEPG2TOX_HILL_SLOPE 3.7, HEPG2TOX_R_SQUARED 0.967, PBLUC_HILL_SLOPE 5.71, PBLUC_R_SQUARED 0.867, read-out: LUCIFERASE INFECTION ASSAY - IC50”, the pIC50 was 5.54.
Take `CCOc1cc(/C=C/C(=O)c2ccc(N(C)C)cc2)cc(Br)c1OCC(=O)N(C)C`: the concentration for an effect of 90% (IC90) came to 4.93 µM. Moreover, under setting [1], the pIC50 is 5.63.
For `Cc1nc(NCCNc2cnccn2)c2c(-c3cccs3)csc2n1`, the IC90 turned out to be 5.98 µM. Further, the pIC50 (HEPG2TOX_HILL_SLOPE 0.714, HEPG2TOX_R_SQUARED 0.963, PBLUC_HILL_SLOPE 3.5, PBLUC_R_SQUARED 0.488, read-out: LUCIFERASE INFECTION ASSAY - IC50) is 5.50.
Turning to `O=C(CCN1CCN(c2ccc([N+](=O)[O-])cc2)CC1)N1CCN(c2ccccn2)CC1`, the IC90 came out at 4.57 µM. The pIC50 (HEPG2TOX_HILL_SLOPE 9.17, HEPG2TOX_R_SQUARED 0.128, PBLUC_HILL_SLOPE 14.9, PBLUC_R_SQUARED 0.446, read-out: LUCIFERASE INFECTION ASSAY - IC50) was 5.40.
As for `N#C/C(=N\Nc1ccc(OC(F)(F)F)cc1)S(=O)(=O)c1ccccn1`, the IC90 was more than 8.91 µM. Moreover, the pIC50 under setting [1] is less than 5.05.
`O=C(CSc1nnnn1-c1ccccc1)N1N=C2/C(=C/c3ccc(F)cc3)CCCC2C1c1ccc(F)cc1` (configuration not stated): the concentration for an effect of 90% (IC90) was more than 10 µM. Also, the pIC50 (FFLUC_HILL_SLOPE 14.4, FFLUC_R_SQUARED 0.768, PBLUC_HILL_SLOPE 7.48, PBLUC_R_SQUARED 0.336, read-out: LUCIFERASE INFECTION ASSAY - IC50) was 5.09.
For the molecule `CCc1cc(OCCCCCCN2CCC(C)CC2)ccc1Cl`, the IC90 was found to be 7.91 µM. The pIC50 (HEPG2TOX_HILL_SLOPE 8.01, HEPG2TOX_R_SQUARED 0.5, PBLUC_HILL_SLOPE 3.89, PBLUC_R_SQUARED 0.522, read-out: LUCIFERASE INFECTION ASSAY - IC50) was 5.35.
As for `Oc1ccc(Br)cc1/C=N/c1cc(C(F)(F)F)ccc1NCCc1ccccc1`, the IC90 is more than 7.12 µM. In addition, the pIC50 (PBLUC_HILL_SLOPE 12.2, PBLUC_R_SQUARED 0.511, read-out: LUCIFERASE INFECTION ASSAY - IC50) was less than 5.15.
As for `Cc1cccc(C)c1NC(=S)NC1CC(C)CC(C)(C)C1` (configuration not stated), the IC90 worked out at 5.5 µM. In addition, under “HEPG2TOX_HILL_SLOPE 2.42, HEPG2TOX_R_SQUARED 0.462, PBLUC_HILL_SLOPE 8.54, PBLUC_R_SQUARED 0.744, read-out: LUCIFERASE INFECTION ASSAY - IC50”, the pIC50 is 5.37.
Turning to `Cc1ccc(-n2nc(-c3ccc(OC(F)(F)F)cc3)cc2NC(=O)Nc2ccc(OC(F)(F)F)cc2)cc1C`, the IC90 was more than 6 µM. The pIC50 (FFLUC_HILL_SLOPE 0.93, FFLUC_R_SQUARED 0.122, PBLUC_HILL_SLOPE 17.9, PBLUC_R_SQUARED 0.245, read-out: LUCIFERASE INFECTION ASSAY - IC50) is 5.22.
For the molecule `CC(=O)Nc1nc(C(=O)Nc2ccc3c(c2)OC(F)(F)O3)cs1`, the IC90 is more than 10 µM. The pIC50 (PBLUC_HILL_SLOPE 15.0, 3.17, PBLUC_R_SQUARED 0.232, 0.795, read-out: LUCIFERASE INFECTION ASSAY - IC50) was 5.10.
On to `COCCN1COc2c(cc(Cl)c3cccnc23)C1`, for which the IC90 is 5.37 µM. Besides, the pIC50 (HEPG2TOX_HILL_SLOPE 3.55, HEPG2TOX_R_SQUARED 0.927, PBLUC_HILL_SLOPE 12, PBLUC_R_SQUARED 0.223, read-out: LUCIFERASE INFECTION ASSAY - IC50) was 5.35.
With `Cc1ccc(-n2c(C)cc(C(=O)CNCc3ccccc3)c2C)cc1`, the IC90 is more than 10 µM. The negative logarithm of the IC50 (pIC50) (PBLUC_HILL_SLOPE 3.04, PBLUC_R_SQUARED 0.101, read-out: LUCIFERASE INFECTION ASSAY - IC50) is 5.02.
Regarding `COc1cc(NCc2cc(Cl)cc(Cl)c2OC)ccc1NC(=O)C(C)C`, the IC90 was 8.02 µM. For the same molecule, under “HEPG2TOX_HILL_SLOPE 3.35, HEPG2TOX_R_SQUARED 0.946, PBLUC_HILL_SLOPE 1.13, PBLUC_R_SQUARED 0.756, read-out: LUCIFERASE INFECTION ASSAY - IC50”, the pIC50 was 5.94.
Consider `CCn1c2ccccc2c2cc(NC(=O)COC(=O)CC3CCCC3)ccc21`, for which the IC90 is 9.1 µM. Also, the pIC50 (PBLUC_HILL_SLOPE 3.89, PBLUC_R_SQUARED 0.506, read-out: LUCIFERASE INFECTION ASSAY - IC50) is 5.29.
In the case of `CCOc1ccc2nc(N/N=C3/C(=O)N(c4ccccc4)N=C3C)sc2c1`, the IC90 was 9.42 µM. The pIC50 (PBLUC_HILL_SLOPE 22.7, PBLUC_R_SQUARED 0.625, read-out: LUCIFERASE INFECTION ASSAY - IC50) is 5.07.
With `CC(C)(C)OC(=O)NC1CCN(C(=O)Nc2cc(Cl)cc(Cl)c2)CC1`, the IC90 is more than 8.5 µM. For the same molecule, the pIC50 (PBLUC_HILL_SLOPE 7.08, PBLUC_R_SQUARED 0.106, read-out: LUCIFERASE INFECTION ASSAY - IC50) is less than 5.07.
Consider `O=C(CC12CC3CC(CC(C3)C1)C2)NN=CC1C(=O)N(Cc2ccccc2)C(=O)c2ccccc21` (configuration not stated), for which the IC90 was more than 10 µM. In addition, the pIC50 under setting [1] is less than 5.00.

For orientation: pIC50 means the negative decadic logarithm of the IC50, by convention in mol/L. In general, IC90 refers to the concentration needed for an effect of 90%.
